Data: patent publication US8796292B2, “Selective antibacterials for clostridium difficile infections” (GLSynthesis Inc., priority 2009, dated 2014)
Values after ≈ are worked out from the molar mass of the structure shown. Read-outs that look alike come from different tables or passages of the source.

Key:
Assay in all cases: agar dilution MIC assay of anaerobic bacteria
Bi. brevi = assay type: cell-based, Bifidobacterium brevi; conditions: Bifidobacterium breve; Bi. Breve, Strain no. 3967 (ATCC strain), Table 3
Experimental: (§1) Each compound was assayed against a panel of anaerobic bacteria in culture, consisting of Gram-positive organisms, such as Lactobacilli, Bifidobacteria, Clostridium spp., and Gram-negative bacteria, such as […] fragilis spp., according to guidelines of the Clinical and Laboratory Standards Institute (CLSI document M11-A7, CLSI, Wayne, Pa., 2007). […] One tenth mL of diluted bacteria containing 500-1000 colony-forming units (CFU) was plated and spread, and the plates incubated at 37° C. for 24-48 hours. MIC (minimum inhibitory concentration) is equivalent to the lowest concentration in μg/ml at which growth, i.e., colony formation, is not observed. […] Bacteria were assayed using a reference agar dilution method. Drug dilutions and drug-supplemented agar plates were prepared manually. The test organisms were maintained frozen at −80° C. The isolates were sub-cultured on Supplemented Brucella Agar (SBA) plates in a Bactron II anaerobic chamber and incubated for 48 hours at 35-36° C. in the Bactron II anaerobe chamber. Following inoculation, the drug-supplemented plates were incubated at 35° C. for 48 hours in the anaerobic environment (5% hydrogen, 5% carbon dioxide, 90% nitrogen) of the Bactron II. The MIC in μg/ml was read per Clinical and Laboratory Standards Institute guidelines.

L. casei = assay type: cell-based, Lactobacillus casei; conditions: Lacticaseibacillus casei, Strain no. 1722 (ATCC strain), Table 3
Experimental: as §1

Bi. longum = assay type: cell-based, Bifidobacterium longum; conditions: Bifidobacterium longum; Bi. Longum, Strain no. 3968 (ATCC strain), Table 3; read-out: MIC
Experimental: as §1

E. lentum = assay type: cell-based, Eubacterium lentum; conditions: Eggerthella lenta; Eu. Lentum, Strain no. 1274 (ATCC strain), Table 3; read-out: MIC
Experimental: as §1

C. difficile = assay type: cell-based, Clostridium difficile
Experimental: as §1

L. acidophilus = assay type: cell-based; conditions: Lactobacillus acidophilus, Strain no. 0681, Table 3
Experimental: as §1

Ba. fragilis = assay type: cell-based; conditions: Bacteroides fragilis, B. fragilis, Strain no. 0123 (ATCC strain), Gram-negative (control), Table 3
Experimental: as §1

[1] = Clostridioides difficile, C. diff., Strain no. 3580, Table 3, read-out: MIC
[2] = Clostridioides difficile, C. diff., Strain no. 3581, Table 3, read-out: MIC
[3] = Clostridioides difficile, C. diff., Strain no. 3582, Table 3, read-out: MIC
[4] = Clostridioides difficile, C. diff., Strain no. 3584, Table 3, read-out: MIC
[5] = Clostridioides difficile, C. diff., Strain no. 3585, Table 3, read-out: MIC
[6] = Clostridioides difficile, C. diff., Strain no. 3586, Table 3, read-out: MIC
[7] = Clostridioides difficile, C. diff., Strain no. 3587, Table 3, read-out: MIC
[8] = Clostridioides difficile, C. diff., Strain no. 3588, Table 3, read-out: MIC
[9] = Clostridioides difficile, C. diff., Strain no. 3589, Table 3, read-out: MIC
[10] = Clostridioides difficile, C. diff., Strain no. 4381 (ATCC strain), Table 3, read-out: MIC

Cl.O=c1cc(NCc2ccc(Cl)c(Cl)c2)[nH]c(=O)n1CCOCCN1CCOCC1 [Compound 240D]
MIC (Bi. brevi): > 32 µg/mL | MIC (L. casei): > 32 µg/mL | MIC (Bi. longum): > 32 µg/mL | MIC (E. lentum): > 32 µg/mL | MIC (C. difficile; [1]): 32 µg/mL | MIC (C. difficile; [2]): 8 µg/mL | MIC (C. difficile; [3]): 32 µg/mL | MIC (C. difficile; [4]): 8 µg/mL | MIC (C. difficile; [5]): 16 µg/mL | MIC (C. difficile; [6]): 8 µg/mL | MIC (C. difficile; [7]): 16 µg/mL | MIC (C. difficile; [8]): 2 µg/mL | MIC (C. difficile; [9]): 16 µg/mL | MIC (C. difficile; [10]): 8 µg/mL | MIC (L. acidophilus): 16 µg/mL | MIC (Ba. fragilis): > 32 µg/mL

O=c1[nH]c(NCc2ccc(Cl)c(Cl)c2)nc2ncn(CCOCCN3CCOCC3)c12 [Compound 360A]
MIC (Bi. brevi): > 32 µg/mL | MIC (L. casei): > 32 µg/mL | MIC (Bi. longum): > 32 µg/mL | MIC (E. lentum): > 32 µg/mL | MIC (C. difficile; [1]): 16 µg/mL (≈ 34.2 µM) | MIC (C. difficile; [2]): 8 µg/mL (≈ 17.1 µM) | MIC (C. difficile; [3]): 16 µg/mL (≈ 34.2 µM) | MIC (C. difficile; [4]): 4 µg/mL (≈ 8.56 µM) | MIC (C. difficile; [5]): 16 µg/mL (≈ 34.2 µM) | MIC (C. difficile; [6]): 4 µg/mL (≈ 8.56 µM) | MIC (C. difficile; [7]): 8 µg/mL (≈ 17.1 µM) | MIC (C. difficile; [8]): 1 µg/mL (≈ 2.14 µM) | MIC (C. difficile; [9]): 16 µg/mL (≈ 34.2 µM) | MIC (C. difficile; [10]): 8 µg/mL (≈ 17.1 µM) | MIC (L. acidophilus): 16 µg/mL (≈ 34.2 µM) | MIC (Ba. fragilis): > 32 µg/mL

O=c1[nH]c(NCc2ccc(Cl)c(Cl)c2)nc2ncn(CCCN3CCOCC3)c12 [Compound 363A]
MIC (C. difficile; C. diff. Strain no. 18285, Table 4): 8 µg/mL (≈ 18.3 µM) | MIC (C. difficile; C. diff. Strain no. 19265, Table 4): 8 µg/mL (≈ 18.3 µM) | MIC (C. difficile; C. diff. Strain no. 19273, Table 4): 4 µg/mL (≈ 9.15 µM) | MIC (C. difficile; C. diff. Strain no. 19281, Table 4): 8 µg/mL (≈ 18.3 µM) | MIC (C. difficile; C. diff. Strain no. 19291, Table 4): 4 µg/mL (≈ 9.15 µM) | MIC (C. difficile; C. diff. Strain no. 19369, Table 4): 8 µg/mL (≈ 18.3 µM) | MIC (C. difficile; C. diff. Strain no. 19382, Table 4): 2 µg/mL (≈ 4.57 µM) | MIC (C. difficile; C. diff. Strain no. 19540, Table 4): 4 µg/mL (≈ 9.15 µM) | MIC (C. difficile; C. diff. Strain no. 19580, Table 4): 2 µg/mL (≈ 4.57 µM) | MIC (C. difficile; C. diff. Strain no. 19680, Table 4): 8 µg/mL (≈ 18.3 µM) | MIC (C. difficile; C. diff. Strain no. 19681, Table 4): 4 µg/mL (≈ 9.15 µM) | MIC (C. difficile; C. diff. Strain no. 19683, Table 4): 8 µg/mL (≈ 18.3 µM) | MIC (C. difficile; C. diff. Strain no. 19687, Table 4): 8 µg/mL (≈ 18.3 µM) | MIC (C. difficile; C. diff. Strain no. 20066, Table 4): 8 µg/mL (≈ 18.3 µM) | MIC (C. difficile; C. diff. Strain no. 20152, Table 4): 8 µg/mL (≈ 18.3 µM) | MIC (C. difficile; C. diff. Strain no. 20307, Table 4): 2 µg/mL (≈ 4.57 µM) | MIC (C. difficile; C. diff. Strain no. 20494, Table 4): 8 µg/mL (≈ 18.3 µM) | MIC (C. difficile; C. diff. Strain no. 20680, Table 4): 8 µg/mL (≈ 18.3 µM) | MIC (C. difficile; C. diff. Strain no. 20934, Table 4): 2 µg/mL (≈ 4.57 µM) | MIC (C. difficile; C. diff. Strain no. 21099, Table 4): 8 µg/mL (≈ 18.3 µM)
